Measurements from ChEMBL document CHEMBL3797121, “Novel nucleoside-based antimalarial compounds” (Bioorg Med Chem Lett, 2016).

Key:
Plasmodium falciparum = test: Antimalarial activity against erythrocytic stage of Plasmodium falciparum K1 after 18 hrs by [3H]-hypoxanthine incorporation assay; format: functional, organism-based
[1] = Selectivity index, ratio of IC50 for rat L6 cells to IC50 for erythrocytic stage of Plasmodium falciparum K1; format: toxicity, cell-based; conditions: read-out: Ratio IC50
L6 = test: Cytotoxicity against rat L6 cells; format: cell-based

SMILES | IC50 (Plasmodium falciparum) | selectivity ratio [1] | IC50 (L6)
CNc1ncnc2c1ncn2[C@@H]1O[C@H](C)[C@@H](O)[C@H]1O | 9.01 µM | 30 | 266 µM
C[C@H]1O[C@@H](n2cnc3c(N)nc(NN)nc32)[C@H](O)[C@@H]1O | 42 µM | 4 | 188 µM
C[C@H]1O[C@@H](n2cnc3c(N)nc(F)nc32)[C@H](O)[C@@H]1O | 1 µM | 2 | 2.1 µM
C[C@H]1O[C@@H](n2cnc3c(N)nc(N=[N+]=[N-])nc32)[C@H](O)[C@@H]1O | 108 µM | 2 | 181 µM
CNc1nc(I)nc2c1ncn2[C@@H]1O[C@H](C)[C@@H](O)[C@H]1O | 64.9 µM | 2 | 137 µM
C[C@H]1O[C@@H](n2cnc3c(N)nc(C#N)nc32)[C@H](O)[C@@H]1O | 33.5 µM | 5 | 177 µM
CCN(CC)CCCC(C)Nc1ccnc2cc(Cl)ccc12 (centres undefined) [CHLOROQUINE] |  |  | 120 µM

Continued by falling IC50 (Plasmodium falciparum), values first:

IC50 (Plasmodium falciparum) | SMILES | selectivity ratio [1] | IC50 (L6)
55.9 µM | C[C@H]1O[C@@H](n2cnc3c(N)nc(I)nc32)[C@H](O)[C@@H]1O | 2 | 110 µM
31.2 µM | CNc1nc(C#N)nc2c1ncn2[C@@H]1O[C@H](C)[C@@H](O)[C@H]1O | 3 | 85 µM
17.5 µM | C[C@H]1O[C@@H](n2cnc3c(N)nc(Cl)nc32)[C@H](O)[C@@H]1O | 8 | 147 µM
15.6 µM | C[C@H]1O[C@@H](n2cnc3c(N)nc(N)nc32)[C@H](O)[C@@H]1O | 22 | 338 µM
11.5 µM | CNc1nc(F)nc2c1ncn2[C@@H]1O[C@H](C)[C@@H](O)[C@H]1O | 21 | 236 µM
